Values after ≈ are worked out from the molar mass of the structure shown. Square brackets hold non-standard residues; d marks the D form. Peptide text beside a SMILES is read from it. * marks the point of attachment. NH(1-CH2NMe2-cBu) = CN(C)CC1(N*)CCC1; Benzoyl(4-F) = O=C(c1ccc(F)cc1)*; hCha = N[C@@H](CCC1CCCCC1)C(=O)O; Aib = CC(C)(N)C(=O)O; βAla = NCCC(=O)O
Tests used:
[1] = system: Staphylococcus aureus ATCC BAA-1556, USA300 MRSA; test: microbe, parasite or virus in culture; format: cell-based; details: ATCC BAA-1556
Description: Pre-formulated compound solution was diluted in 100% DMSO to prepare a 1.6 mg/mL working stock solution. […] The concentration range was 0.032 to 32 μg/mL.

[2] = system: S. aureus (USA300 MRSA, BAA-1556); test: S. aureus dermal infection model in ICR mice, CFU/skin; format: in vivo, Staphylococcus aureus; details: 25 hours post inoculation; topical BID at 1 and 7 h post infection, 20 μL/mouse; 6027 1% in DMSO, fusidic acid 2%
Description: Inoculum preparation. The testing strain, S. aureus USA300 MRSA (BAA-1556), was obtained from the frozen working stock and thawed at room temperature. A 0.2 mL aliquot was inoculated into 20 mL Brain-Heart Infusion broth (BHI) and then incubated at 35-37° C. with shaking (120 rpm) for 8 h. Bacterial cells in the 20 mL culture were pelleted by centrifugation at 3,500×g for 15 minutes and then re-suspended in 10 mL cold PBS (>8.0×10^9 CFU/mL, OD620 1.8-2.0). The culture was then diluted in PBS to the target inoculum of 1.0×10^7 CFU/mL. The actual bacterial counts were determined by plating dilutions onto nutrient agar (NA) plates followed by 20-24 h incubation and colony counting. The actual CFU counts were 1.04×10^7 CFU/mL.
S. aureus (USA300 MRSA, BAA-1556) dermal infection model. Groups of 5 female ICR mice weighing 24±2 g were used. Animals were anesthetized with etomidate-lipuro emulsion (20 mg/10 mL) at 20 mg/kg by intravenous (IV) injection, and then the fur on the back was removed by an electric shaver, and the epidermal layer was disrupted with an abrasive paper. Mice were inoculated topically (TOP) on the wound area with S. aureus (MRSA, BAA-1556) suspension, 5 μL/mouse. The target inoculation density was 5×10^4 CFU/mouse and the actual inoculum count 5.2×10^4 CFU/mouse. Animals were housed separately after infection. Compound 6027 in DMSO at 1% was administered topically (TOP) twice (BID) at 1 and 7 h post infection. Reference control agent, fusidic acid cream at 20 mg/gram (2%), was administered TOP BID at 1 and 7 h post infection. One infected and untreated group was sacrificed at 1 h after infection for the initial (baseline) bacterial counts. The dose volumes were 20 μL/mouse for all dosing groups.
Animals were sacrificed at 1 or 25 h after inoculation with CO2 asphyxiation. The infected skin samples of the wound infection (around 2 cm 2 areas) were excised and were homogenized in 1 mL PBS (pH 7.4) with a polytron homogenizer. A 0.1 mL aliquot of each homogenate was used for serial 10-fold dilutions and plated onto NA plates for bacterial enumeration. The bacterial counts (CFU/skin) in skin tissues were calculated and the percentage decrease in counts compared to the corresponding vehicle control (placebo) was calculated with the following formula: Decrease (%)=[(CFU/skin of placebo —CFU/skin of treatment)/(CFU/skin of placebo)]×100%.

[3] = system: Staphylococcus aureus NARSA VRS2; test: microbe, parasite or virus in culture; format: cell-based
[4] = system: Staphylococcus aureus NARSA NRS382; test: microbe, parasite or virus in culture; format: cell-based; details: NARSA NRS382
[5] = system: intracellular Leishmania donovani MHOM-ET-67/L82 amastigotes; test: In vitro antiprotozoal assay, intracellular amastigotes; format: cell-based; details: intracellular amastigotes; read-out: L.don.InMac IC50
Description: (§1) The testing of the inventive compounds against Leishmania donovani (strain MHOM/ET/67/L82) was performed in 96 well plates at concentrations in serial dilutions. Tests were done in triplicate.

[6] = system: axenic Leishmania donovani MHOM-ET-67/L82 amastigotes; test: In vitro antiprotozoal assay, axenic amastigotes; format: cell-based; details: axenic amastigotes; read-out: L.don.ax. IC50
Description: as §1

[7] = physchem; details: water
[8] = system: Staphylococcus epidermidis ATCC 12228; test: MIC broth microdilution, method 1; format: cell-based; details: 6027 acetate
[9] = system: Staphylococcus aureus NARSA NRS383; test: microbe, parasite or virus in culture; format: cell-based; details: NARSA NRS383
[10] = Cytotoxicity assay (Alamar Blue) on L6-cells; format: cell-based, rat; details: rat
Description: Tests were done in triplicate.
The plates were incubated for additional 2 h.

[11] = system: Staphylococcus aureus NARSA NRS22; test: microbe, parasite or virus in culture; format: cell-based
[12] = system: Staphylococcus aureus ATCC 33591; test: microbe, parasite or virus in culture; format: cell-based; details: ATCC 33591, Methicillin resistant; 6027 acetate
[13] = system: Staphylococcus aureus NARSA NRS127; test: microbe, parasite or virus in culture; format: cell-based; details: NARSA NRS127
[14] = system: Staphylococcus aureus ATCC 29213; test: MIC broth microdilution, method 1; format: cell-based; details: CAMHB II, 1 day at 36° C., 6027 acetate

In the case of CC(C)C[C@H](NC(=O)[C@H](CCC1CCCCC1)NC(=O)[C@@H]1CCCN1C(=O)c1ccc(F)cc1)C(=O)NC(C)(C)C(=O)N[C@@H](CC(C)C)C(=O)N[C@@H](CC(C)C)C(=O)NC(C)(C)C(=O)NC(C)(C)C(=O)NCCC(=O)NC1(CN(C)C)CCC1 [Compound 6027, (2S)-2-[(2S)-4-cyclohexyl-2-{[(2S)-1-(4-fluorobenzoyl)pyrrolidin-2-yl]formamido}butanamido]-N-(1-{[(1S)-1-{[(1S)-1-({1-[(1-{[2-({1-[(dimethylamino)methyl]cyclobutyl}carbamoyl)ethyl]carbamoyl}-1-methylethyl)carbamoyl]-1-methylethyl}carbamoyl)-3-methylbutyl]carbamoyl}-3-methylbutyl]carbamoyl}-1-methylethyl)-4-methylpentanamide] ({Benzoyl(4-F)}-P[hCha]L[Aib]LL[Aib][Aib][βAla]-{NH(1-CH2NMe2-cBu)}), the “MIC” value [1] is reported as 1 µg/mL (≈ 0.847 µM), the “Decrease (%) in CFU/skin vs vehicle control” value [2] is reported as 71% and the “LogCFU/skin after 25 hours (Standard error of the mean − SEM)” value [2] is reported as 6.50 (0.16) LogCFU/skin. For the same molecule, the “MIC of 6027” value [3] was 2 µg/mL, the “MIC of 6027” value [4] was 1 µg/mL and the IC50 [5] was 54.2 nM. The IC50 [6] was 5.7 nM, the solubility [7] was 22 µg/mL (≈ 18.6 µM) and the “MIC of 6027” value [8] was 2 µg/mL. The “MIC of 6027” value [9] was 2 µg/mL, the IC50 at 68 h [10] was 1340 nM and the “MIC of 6027” value [11] was 2 µg/mL. The “MIC of 6027” value [12] was 4 µg/mL, the “MIC of 6027” value [13] was 2 µg/mL and the “MIC of 6027” value [14] was 1 µg/mL.

Source: patent publication US20240174714A1, “TREATMENT OF SKIN DISORDERS” (priority 2021, published 2024)
